Reference: patent publication US20200282010A1, “IMMUNOGENIC COMPOSITIONS AND USES THEREFOR” (Epiaxis Therapeutics Pty Ltd, priority 2017, published 2020)

Legend:
PKC-β2 = molecular target: T1, PKC-β2 (Homo sapiens, UniProt P05771); assay: Nuclear localization of PKC-β2 (Fn/c, immunofluorescence), specificity; assay type: cell-based; conditions: MCF7 breast cancer cell line; FIG. 1D
T1 construct: endogenous in cells; host or cells: MCF7
From the text: (§1) FIG. 1 is a graphical, schematic and photographic representation showing that PKC-θ can be targeted for therapeutic intervention. A) Depicts the strength of binding of recombinant purified His6-PKC-θ to increasing concentrations of different subunits and subunit combinations (α2, α2β1, and β1) of the importin α/β heterodimer nuclear transport receptor using an AlphaScreen® binding assay as described in Wagstaff et al. (2011. Journal of Biomolecular Screening 16 (2):192-200). B-C) Depicts protein structure of PKC-θ indicating binding locations for the PKC-θ peptide inhibitor, PKCθi (RKEIDPPFRPKVK), including the nuclear localization sequence (NLS) of PKC-θ. D) The specificity of PKCθi was examined on cells treated with this peptide inhibitor. Cells were screened with primary antibodies to PKC-θ (T538p), PKC-β2, PKC-β1, PKC-α, PKC-ε and PKC-γ. The nuclear to cytoplasmic fluorescence ratio (Fn/c) using the equation: Fn/c=(Fn−Fb)/(Fc−Fb), where Fn is nuclear fluorescence, Fc is cytoplasmic fluorescence, and Fb is background fluorescence was used to determine the impact on nuclear translocation/localization. […] EC^50 of inhibitors calculated using GraphPad PRISM software. F) The PKC-θ kinase activity was measured using the PKC kinase activity kit from ENZO life sciences and recombinant PKC-θ; C27 is an inhibitor of PKC-θ kinase activity, which is disclosed in Jimenez et al. (2013. […]

PKC-α = molecular target: T2, PKC-α (Homo sapiens, UniProt P17252); assay: Nuclear localization of PKC-α (Fn/c, immunofluorescence), specificity; assay type: cell-based; conditions: MCF7 breast cancer cell line; FIG. 1D
T2 construct: endogenous in cells; host or cells: MCF7
From the text: as §1

[1] = tested on: CD8^+ T-cells of melanoma patient liquid biopsies; assay: Immunofluorescence of EOMES, TBET and PD-1 (exhaustion signature) in patient CD8+ T-cells; assay type: cell-based, human; conditions: CR, SD and PD cohorts, vehicle or PMA/CI, FIG. 4
From the text: FIG. 4 is graphical representation showing expression of EOMES, TBET and PD-1 in CD8^+ T-cells of melanoma patient liquid biopsies in the presence and absence of PKCθi peptide inhibitor. A) CD8^+ T-cells were isolated from melanoma patient liquid biopsies (CR=complete response, SD=Stable Disease, PD=progression of disease) and were stimulated with PMA/CI and pre-clinically screened with either vehicle control or PKCθi peptide inhibitor. Samples were then fixed and immunofluorescence microscopy was performed on these cells with primary antibodies for EOMES, TBET, and PD-1. Representative images for each dataset are shown. Graph represents the TCFI for PD1, TNFI for EOMES and TNFI for TBET measured using ImageJ to select the nucleus minus background (n=>20 cells/sample). Graphs depicting the % inhibition or induction based on protein expression where also plotted for each protein target relative to untreated sample.
Metastatic Melanoma Biopsies were pre-enriched using the RosetteSep™ method to isolate CTCs by employing the RosetteSep™ Human CD8 enrichment Kit (15063, StemCell Technologies) to isolate CD8+ cells and red blood cells, using density gradient centrifugation with SepMate™-50 (IVD) density gradient tubes (85450, StemCell Technologies) and Lymphoprep™ density gradient medium (07861, StemCell Technologies). […] Digital images were analysed using ImageJ software (ImageJ, NIH, Bethesda, Md., USA) to determine the either the Total Nuclear Fluorescent Intensity (TNFI), the Total Cytoplasmic Fluorescent Intensity (TCFI) or total Fluorescent Intensity (TFI). The plot-profile feature of ImageJ was used to plot the fluorescence signal intensity along a single line spanning the nucleus (n=5 lines per a nucleus, 5 individual cells) using the average fluorescent signal intensity for the indicated pair of antibodies was plotted for each point on the line with SE. […] For each plot-profile the PCC was determined. […]

T1 sequence (P05771 1-673 isoform P05771-2): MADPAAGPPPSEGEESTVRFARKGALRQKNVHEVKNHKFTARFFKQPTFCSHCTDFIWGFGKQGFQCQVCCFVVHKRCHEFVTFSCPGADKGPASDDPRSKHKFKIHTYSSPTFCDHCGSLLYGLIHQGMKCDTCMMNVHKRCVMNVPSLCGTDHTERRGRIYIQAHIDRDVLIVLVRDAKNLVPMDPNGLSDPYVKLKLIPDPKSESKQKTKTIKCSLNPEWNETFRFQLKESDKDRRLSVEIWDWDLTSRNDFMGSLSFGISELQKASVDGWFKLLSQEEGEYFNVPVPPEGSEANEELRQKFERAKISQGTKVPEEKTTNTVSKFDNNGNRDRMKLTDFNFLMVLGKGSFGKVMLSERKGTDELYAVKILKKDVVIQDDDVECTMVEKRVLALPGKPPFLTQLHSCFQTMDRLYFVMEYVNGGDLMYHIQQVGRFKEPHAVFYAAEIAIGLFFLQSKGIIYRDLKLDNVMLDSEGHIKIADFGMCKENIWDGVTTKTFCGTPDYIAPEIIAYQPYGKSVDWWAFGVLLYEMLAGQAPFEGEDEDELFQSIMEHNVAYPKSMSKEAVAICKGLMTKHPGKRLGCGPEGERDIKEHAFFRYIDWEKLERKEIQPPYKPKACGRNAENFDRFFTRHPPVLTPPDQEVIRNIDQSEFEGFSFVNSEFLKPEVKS

## RKEIDPPFRPKVK [PKCθi]
PKC-β2
  nuclear localization of PKC-β2: no effect
PKC-α
  nuclear localization of PKC-α: no effect
[1]
  TBET expression: enhancing
[1]; inhibitor 8 mm
  expression of EOMES: inhibiting expression
  expression of PD-1: inhibiting expression
